ChEMBL document CHEMBL6134816, “The discovery of novel N-heterocyclic-based AKT inhibitors with potential efficacy against prostate cancer” (Eur J Med Chem, 2025)
Active and inactive are the calls of the source. The calls are words filed in the database; no cut-off is given here.

Experiments:
PC-3 [1] = assay: cells; conditions: Homo sapiens, PC-3, 72 h
Description: Antiproliferative activity against human PC-3 cells assessed as inhibition of cell proliferation incubated for 72 hrs by MTT assay

PC-3 [2] = assay: Induction of apoptosis in human PC-3 cells assessed as apoptotic rate at 1 uM incubated for 48 hrs by Annexin V-FITC/PI staining based flow cytometric analysis relative to control; type: functional
PC-3 [3] = assay: Induction of apoptosis in human PC-3 cells assessed as apoptotic rate at 5 to 10 uM incubated for 48 hrs by Annexin V-FITC/PI staining based flow cytometric analysis relative to control; type: functional; conditions: dose 5-10 µM
[4] = target: Rho-associated protein kinase 1 (Homo sapiens) (UniProt Q13464); assay: Inhibition of ROCK1 (unknown origin) at 1 uM relative to control
Rho-associated protein kinase 1 (Homo sapiens), sequence (Q13464 2-1354 limits assumed): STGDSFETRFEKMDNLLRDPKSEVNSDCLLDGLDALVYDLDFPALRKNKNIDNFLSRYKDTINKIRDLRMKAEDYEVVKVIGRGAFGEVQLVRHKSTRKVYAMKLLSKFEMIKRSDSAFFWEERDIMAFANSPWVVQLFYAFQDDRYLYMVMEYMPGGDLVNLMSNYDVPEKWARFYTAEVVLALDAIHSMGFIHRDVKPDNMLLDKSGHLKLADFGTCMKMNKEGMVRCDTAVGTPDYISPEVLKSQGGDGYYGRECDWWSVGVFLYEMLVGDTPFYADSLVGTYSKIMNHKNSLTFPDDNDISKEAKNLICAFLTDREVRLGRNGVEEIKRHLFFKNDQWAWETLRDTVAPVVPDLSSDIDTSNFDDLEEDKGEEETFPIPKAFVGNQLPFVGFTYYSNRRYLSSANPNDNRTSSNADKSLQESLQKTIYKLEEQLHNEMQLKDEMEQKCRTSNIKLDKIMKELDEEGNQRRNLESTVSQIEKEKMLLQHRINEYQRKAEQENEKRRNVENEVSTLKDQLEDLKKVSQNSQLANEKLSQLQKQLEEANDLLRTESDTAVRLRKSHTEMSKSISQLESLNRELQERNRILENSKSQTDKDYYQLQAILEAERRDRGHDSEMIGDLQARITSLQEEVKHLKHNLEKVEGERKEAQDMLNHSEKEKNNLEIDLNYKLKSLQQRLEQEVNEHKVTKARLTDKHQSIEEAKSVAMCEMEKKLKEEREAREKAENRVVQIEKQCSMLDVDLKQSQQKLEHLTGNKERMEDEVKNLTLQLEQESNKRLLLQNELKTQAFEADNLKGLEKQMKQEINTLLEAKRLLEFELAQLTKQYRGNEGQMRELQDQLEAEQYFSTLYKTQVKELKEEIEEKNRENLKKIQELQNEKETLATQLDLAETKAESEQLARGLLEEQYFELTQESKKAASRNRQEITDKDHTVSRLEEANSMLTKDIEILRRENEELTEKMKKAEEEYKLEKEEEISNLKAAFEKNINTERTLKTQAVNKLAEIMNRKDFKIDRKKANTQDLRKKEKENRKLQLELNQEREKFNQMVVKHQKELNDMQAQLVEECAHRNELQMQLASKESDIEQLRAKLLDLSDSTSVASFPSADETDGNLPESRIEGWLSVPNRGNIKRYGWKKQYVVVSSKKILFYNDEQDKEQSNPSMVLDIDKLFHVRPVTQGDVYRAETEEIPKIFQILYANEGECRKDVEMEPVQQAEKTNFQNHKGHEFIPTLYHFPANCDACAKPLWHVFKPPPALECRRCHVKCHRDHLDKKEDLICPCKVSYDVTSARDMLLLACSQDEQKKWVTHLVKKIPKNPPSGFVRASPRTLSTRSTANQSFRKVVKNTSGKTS

PC-3 [5] = assay: Inhibition of AKT signaling pathway in human PC-3 cells assessed as reduction in phosphorylated GSK3beta level at 1 to 10 uM incubated for 24 hrs by Western blot analysis; type: cell-based; conditions: dose 1-10 µM
[6] = target: Serine/threonine-protein kinase B-raf (Homo sapiens) (UniProt P15056); assay: Inhibition of B-raf (unknown origin) at 1 uM relative to control
[7] = Volume of distribution in male ICR mouse at 1 mg/kg, iv measured after 24 hrs by LC-MS/MS analysis; type: ADME, organism-based; conditions: in vivo
PC-3 [8] = assay: Cell cycle arrest in human PC-3 cells assessed as accumulation of cells at G2 phase at 10 uM incubated for 48 hrs by PI staining based flow cytometric analysis (reference value: 14.45 %); type: functional
[9] = Tmax in male ICR mouse at 10 mg/kg, po measured after 24 hrs by LC-MS/MS analysis; type: ADME, organism-based; conditions: in vivo
[10] = AUC (0 to t) in male ICR mouse at 10 mg/kg, po measured after 24 hrs by LC-MS/MS analysis; type: ADME, organism-based; conditions: in vivo
PC-3 [11] = assay: Upregulation of phosphorylated AKT expression level in human PC-3 cells at 1 to 10 uM incubated for 24 hrs by Western blot analysis; type: functional, cell-based; conditions: dose 1-10 µM
[12] = Half-life in male ICR mouse at 1 mg/kg, iv measured after 24 hrs by LC-MS/MS analysis; type: ADME, organism-based; conditions: in vivo
PC-3 [13] = assay: Cell cycle arrest in human PC-3 cells assessed as accumulation of cells at S phase at 10 uM incubated for 48 hrs by PI staining based flow cytometric analysis (reference value: 24.79 %); type: functional
PC-3 [14] = assay: Cell cycle arrest in human PC-3 cells assessed as accumulation of cells at G2 phase at 1 uM incubated for 48 hrs by PI staining based flow cytometric analysis (reference value: 14.45 %); type: functional
Homo sapiens [15] = species: Homo sapiens; assay: Inhibition of ABL (unknown origin) at 1 uM relative to control
[16] = Half-life in male ICR mouse at 10 mg/kg, po measured after 24 hrs by LC-MS/MS analysis; type: ADME, organism-based; conditions: in vivo
[17] = Oral bioavailability in male ICR mouse at 10 mg/kg measured after 24 hrs by LC-MS/MS analysis; type: ADME, organism-based; conditions: in vivo
Homo sapiens [18] = species: Homo sapiens; assay: Inhibition of PKA (unknown origin) at 1 uM relative to control
[19] = Cmax in male ICR mouse at 10 mg/kg, po measured after 24 hrs by LC-MS/MS analysis; type: ADME, organism-based; conditions: in vivo
[20] = target: Tyrosine-protein kinase JAK1 (Homo sapiens) (UniProt P23458); assay: Inhibition of JAK1 (unknown origin) at 1 uM relative to control
[21] = target: RAC-gamma serine/threonine-protein kinase (Homo sapiens) (UniProt Q9Y243); assay: Inhibition of AKT3 (unknown origin) using biotin-tagged STK as substrate at 10 nM incubated for 40 mins in presence of ATP by fluorescence based microplate reader analysis relative to control
RAC-gamma serine/threonine-protein kinase (Homo sapiens), sequence (Q9Y243 whole entry): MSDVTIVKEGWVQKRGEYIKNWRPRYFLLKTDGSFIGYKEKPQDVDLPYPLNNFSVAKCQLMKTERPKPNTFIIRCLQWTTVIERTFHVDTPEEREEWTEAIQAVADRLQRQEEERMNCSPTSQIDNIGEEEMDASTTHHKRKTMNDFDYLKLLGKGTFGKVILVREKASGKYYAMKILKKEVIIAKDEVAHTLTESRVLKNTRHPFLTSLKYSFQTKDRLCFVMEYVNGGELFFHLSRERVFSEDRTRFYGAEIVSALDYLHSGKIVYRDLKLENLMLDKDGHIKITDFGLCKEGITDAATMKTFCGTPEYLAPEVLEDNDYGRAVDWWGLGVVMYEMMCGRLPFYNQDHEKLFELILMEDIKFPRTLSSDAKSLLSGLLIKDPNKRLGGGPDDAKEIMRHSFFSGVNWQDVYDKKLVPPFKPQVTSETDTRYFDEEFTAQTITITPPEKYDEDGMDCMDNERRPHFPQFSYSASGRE

PC-3 [22] = assay: Cell cycle arrest in human PC-3 cells assessed as accumulation of cells at G1 phase at 5 uM incubated for 48 hrs by PI staining based flow cytometric analysis (reference value: 60.75 %); type: functional
[23] = target: Ribosomal protein S6 kinase alpha-1 (Homo sapiens) (UniProt Q15418); assay: Inhibition of RSK1 (unknown origin) at 1 uM relative to control
Ribosomal protein S6 kinase alpha-1 (Homo sapiens), sequence (Q15418 whole entry): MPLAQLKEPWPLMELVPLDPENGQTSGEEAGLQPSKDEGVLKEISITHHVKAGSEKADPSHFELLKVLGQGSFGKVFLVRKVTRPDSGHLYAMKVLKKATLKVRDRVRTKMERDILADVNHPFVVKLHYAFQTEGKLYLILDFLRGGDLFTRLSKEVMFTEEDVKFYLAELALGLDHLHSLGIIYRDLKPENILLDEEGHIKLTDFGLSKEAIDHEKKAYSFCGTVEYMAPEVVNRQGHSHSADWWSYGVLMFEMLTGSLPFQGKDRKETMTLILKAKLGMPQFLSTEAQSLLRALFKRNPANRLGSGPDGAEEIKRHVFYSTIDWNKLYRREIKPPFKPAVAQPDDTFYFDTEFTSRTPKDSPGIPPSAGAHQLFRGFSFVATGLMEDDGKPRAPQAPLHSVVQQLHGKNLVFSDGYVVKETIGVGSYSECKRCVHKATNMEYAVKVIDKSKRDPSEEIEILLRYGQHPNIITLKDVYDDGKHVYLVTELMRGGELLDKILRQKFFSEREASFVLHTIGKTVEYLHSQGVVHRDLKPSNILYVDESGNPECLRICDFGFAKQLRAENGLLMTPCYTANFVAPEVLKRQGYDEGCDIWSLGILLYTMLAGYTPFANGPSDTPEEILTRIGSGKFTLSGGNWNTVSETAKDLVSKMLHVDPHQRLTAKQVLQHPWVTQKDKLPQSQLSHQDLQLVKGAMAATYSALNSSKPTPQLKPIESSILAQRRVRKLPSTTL

PC-3 [24] = assay: Cell cycle arrest in human PC-3 cells assessed as accumulation of cells at S phase at 1 uM incubated for 48 hrs by PI staining based flow cytometric analysis (reference value: 24.79 %); type: functional
[25] = AUC (0 to infinity) in male ICR mouse at 10 mg/kg, po measured after 24 hrs by LC-MS/MS analysis; type: ADME, organism-based; conditions: in vivo
[26] = AUC (0 to t) in male ICR mouse at 1 mg/kg, iv measured after 24 hrs by LC-MS/MS analysis; type: ADME, organism-based; conditions: in vivo
PC-3 [27] = assay: Cell cycle arrest in human PC-3 cells assessed as accumulation of cells at G1 phase at 10 uM incubated for 48 hrs by PI staining based flow cytometric analysis (reference value: 60.75 %); type: functional
PC-3 [28] = assay: Cell cycle arrest in human PC-3 cells assessed as accumulation of cells at S phase at 5 uM incubated for 48 hrs by PI staining based flow cytometric analysis (reference value: 24.79 %); type: functional
[29] = AUC (0 to infinity) in male ICR mouse at 1 mg/kg, iv measured after 24 hrs by LC-MS/MS analysis; type: ADME, organism-based; conditions: in vivo
PC-3 [30] = assay: Cell cycle arrest in human PC-3 cells assessed as accumulation of cells at G1 phase at 1 uM incubated for 48 hrs by PI staining based flow cytometric analysis (reference value: 60.75 %); type: functional
[31] = MRT (0 to infinity) in male ICR mouse at 1 mg/kg, iv measured after 24 hrs by LC-MS/MS analysis; type: ADME, organism-based; conditions: in vivo
[32] = target: Cyclin-dependent kinase 1 (Homo sapiens) (UniProt P06493); assay: Inhibition of CDK1 (unknown origin) at 1 uM relative to control
Cyclin-dependent kinase 1 (Homo sapiens), sequence (P06493 whole entry, looked up): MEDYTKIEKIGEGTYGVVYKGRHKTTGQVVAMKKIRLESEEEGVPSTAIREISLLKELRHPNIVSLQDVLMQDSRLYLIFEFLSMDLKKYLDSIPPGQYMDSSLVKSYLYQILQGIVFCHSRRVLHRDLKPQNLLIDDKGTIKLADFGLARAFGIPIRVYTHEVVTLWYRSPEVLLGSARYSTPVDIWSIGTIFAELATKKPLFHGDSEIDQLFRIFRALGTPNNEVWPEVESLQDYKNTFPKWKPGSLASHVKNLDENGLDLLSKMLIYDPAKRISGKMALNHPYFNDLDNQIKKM

[33] = target: RAF proto-oncogene serine/threonine-protein kinase (Homo sapiens) (UniProt P04049); assay: Inhibition of RAF-1 (unknown origin) at 1 uM relative to control
RAF proto-oncogene serine/threonine-protein kinase (Homo sapiens), sequence (P04049 whole entry): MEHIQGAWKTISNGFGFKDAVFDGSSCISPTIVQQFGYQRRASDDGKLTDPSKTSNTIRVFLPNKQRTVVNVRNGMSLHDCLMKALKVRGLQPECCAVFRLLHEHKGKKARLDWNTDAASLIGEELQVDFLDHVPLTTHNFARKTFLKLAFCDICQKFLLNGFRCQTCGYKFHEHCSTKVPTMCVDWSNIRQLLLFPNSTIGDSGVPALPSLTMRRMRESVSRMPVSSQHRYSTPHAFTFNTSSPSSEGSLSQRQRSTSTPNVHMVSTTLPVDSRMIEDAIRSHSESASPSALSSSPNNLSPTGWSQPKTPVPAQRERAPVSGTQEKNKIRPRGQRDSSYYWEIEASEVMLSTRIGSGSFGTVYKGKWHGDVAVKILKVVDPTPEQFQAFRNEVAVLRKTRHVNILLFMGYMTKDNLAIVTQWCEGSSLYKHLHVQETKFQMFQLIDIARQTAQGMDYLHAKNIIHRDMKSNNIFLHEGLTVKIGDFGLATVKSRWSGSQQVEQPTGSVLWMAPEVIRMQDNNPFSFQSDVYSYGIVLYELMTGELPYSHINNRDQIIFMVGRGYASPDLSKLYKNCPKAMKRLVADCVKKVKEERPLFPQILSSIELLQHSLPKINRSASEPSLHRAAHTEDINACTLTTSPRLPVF

[34] = target: Ribosomal protein S6 kinase beta-1 (Homo sapiens) (UniProt P23443); assay: Inhibition of p70S6K (unknown origin) at 1 uM relative to control
[35] = target: RAC-beta serine/threonine-protein kinase (Homo sapiens) (UniProt P31751); assay: Inhibition of AKT2 (unknown origin) using biotin-tagged STK as substrate at 10 nM incubated for 40 mins in presence of ATP by fluorescence based microplate reader analysis relative to control
RAC-beta serine/threonine-protein kinase (Homo sapiens), sequence (P31751 whole entry): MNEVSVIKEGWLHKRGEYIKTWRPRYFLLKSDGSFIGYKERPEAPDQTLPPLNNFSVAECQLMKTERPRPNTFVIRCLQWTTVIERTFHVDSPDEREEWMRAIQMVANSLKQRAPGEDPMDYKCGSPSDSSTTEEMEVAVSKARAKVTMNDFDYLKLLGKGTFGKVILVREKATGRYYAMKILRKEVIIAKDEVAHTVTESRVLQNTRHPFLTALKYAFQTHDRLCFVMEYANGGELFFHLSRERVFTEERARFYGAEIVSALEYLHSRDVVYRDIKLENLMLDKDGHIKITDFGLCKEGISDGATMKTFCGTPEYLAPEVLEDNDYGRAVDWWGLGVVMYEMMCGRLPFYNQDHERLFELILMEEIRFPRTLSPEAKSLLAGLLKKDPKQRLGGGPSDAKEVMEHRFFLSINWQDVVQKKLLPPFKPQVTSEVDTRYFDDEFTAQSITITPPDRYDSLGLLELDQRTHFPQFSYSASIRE

[36] = target: Glycogen synthase kinase-3 beta (Homo sapiens) (UniProt P49841); assay: Inhibition of GSK3beta (unknown origin) at 1 uM relative to control
Glycogen synthase kinase-3 beta (Homo sapiens), sequence (P49841 whole entry, looked up): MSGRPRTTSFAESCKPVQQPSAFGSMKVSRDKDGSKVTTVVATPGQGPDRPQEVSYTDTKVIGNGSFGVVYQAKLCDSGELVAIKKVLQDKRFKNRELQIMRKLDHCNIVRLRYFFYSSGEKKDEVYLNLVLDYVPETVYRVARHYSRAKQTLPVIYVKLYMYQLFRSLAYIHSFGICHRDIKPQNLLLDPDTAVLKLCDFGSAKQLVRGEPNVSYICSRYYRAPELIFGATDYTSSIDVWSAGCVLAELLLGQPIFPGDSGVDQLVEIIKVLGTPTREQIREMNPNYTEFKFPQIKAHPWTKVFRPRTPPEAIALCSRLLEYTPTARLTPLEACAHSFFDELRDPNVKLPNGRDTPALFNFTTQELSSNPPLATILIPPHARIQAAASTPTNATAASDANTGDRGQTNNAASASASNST

PC-3 [37] = assay: Cell cycle arrest in human PC-3 cells assessed as accumulation of cells at G2 phase at 5 uM incubated for 48 hrs by PI staining based flow cytometric analysis (reference value: 14.45 %); type: functional
[38] = MRT (0 to infinity) in male ICR mouse at 10 mg/kg, po measured after 24 hrs by LC-MS/MS analysis; type: ADME, organism-based; conditions: in vivo
[39] = target: MAP kinase-interacting serine/threonine-protein kinase 1 (Homo sapiens) (UniProt Q9BUB5); assay: Inhibition of MNK1 (unknown origin) at 1 uM relative to control
MAP kinase-interacting serine/threonine-protein kinase 1 (Homo sapiens), sequence (Q9BUB5 whole entry, looked up): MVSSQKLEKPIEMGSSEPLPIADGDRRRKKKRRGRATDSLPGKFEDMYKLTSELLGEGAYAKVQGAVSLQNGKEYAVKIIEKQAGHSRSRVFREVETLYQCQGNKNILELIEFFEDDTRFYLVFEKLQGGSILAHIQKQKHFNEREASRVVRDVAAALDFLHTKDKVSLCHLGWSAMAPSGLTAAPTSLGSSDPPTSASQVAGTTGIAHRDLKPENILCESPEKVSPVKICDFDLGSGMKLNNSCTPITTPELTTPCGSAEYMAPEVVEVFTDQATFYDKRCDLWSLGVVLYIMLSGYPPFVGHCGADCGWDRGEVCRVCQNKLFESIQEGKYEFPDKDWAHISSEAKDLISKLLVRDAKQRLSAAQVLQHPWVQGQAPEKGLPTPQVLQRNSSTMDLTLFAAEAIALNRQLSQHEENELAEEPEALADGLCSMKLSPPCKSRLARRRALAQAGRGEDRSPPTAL

[40] = Clearance in male ICR mouse at 1 mg/kg, iv measured after 24 hrs by LC-MS/MS analysis; type: ADME, organism-based; conditions: in vivo

## CNc1nccc(N2CCN(C(=O)C(CNC(C)C)c3ccc(Br)cc3)CC2)n1 (stereo not given)
PC-3 [1]
  IC50: > 40 µM

## CC(C)NCC(C(=O)N1CCN(c2ncnc3[nH]nc(Br)c23)CC1)c1ccc(Br)cc1 (stereo not given)
PC-3 [2]
  Activity: 12.28%
PC-3 [3]
  Activity: >20%
[4]
  inhibition: 91%
PC-3 [5]
  inhibition: Active
[6]
  inhibition: < 60%
[7]
  Vd: 12.3 L/kg
PC-3 [8]
  Activity: 9.23%
[9]
  Tmax: 0.5 h
[10]
  AUC(0-t) at 24 h: 830 ng·h/mL
PC-3 [11]
  Activity: Active; Negative Feedback Regulation Within Akt Signaling Pathway Observed
[12]
  half-life: 1.85 h
PC-3 [13]
  Activity: 38.31%
PC-3 [14]
  Activity: 12.24%
Homo sapiens [15]
  inhibition: < 60%
[16]
  half-life: 1.59 h
[17]
  bioavailability: 41%
Homo sapiens [18]
  inhibition: 98%
[19]
  Cmax: 306 ng/mL
[20]
  inhibition: < 60%
[21]
  inhibition: 89%
PC-3 [22]
  Activity: 53.21%
[23]
  inhibition: 99%
PC-3 [1]
  IC50: 3 µM
PC-3 [24]
  Activity: 38.35%
[25]
  AUC(0-inf): 876 ng·h/mL
[26]
  AUC(0-t) at 24 h: 202 ng·h/mL
PC-3 [27]
  Activity: 52.45%
PC-3 [28]
  Activity: 36.75%
[29]
  AUC(0-inf): 214 ng·h/mL
PC-3 [30]
  Activity: 49.42%
[31]
  MRT inf: 1.68 h
[32]
  inhibition: < 60%
[33]
  inhibition: < 60%
[34]
  inhibition: 101%
[35]
  inhibition: 64%
[36]
  inhibition: < 60%
PC-3 [37]
  Activity: 10.04%
[38]
  MRT inf: 2.43 h
[39]
  inhibition: < 60%
[40]
  clearance: 78.6 mL/min/kg

## CC(C)NCC(C(=O)N1CCN(c2ncnc3[nH]nc(Br)c23)CC1)c1ccc(Cl)cc1Cl (stereo not given)
PC-3 [1]
  IC50: 7.8 µM

## CCn1c(-c2nonc2N)nc2c(C#CC(C)(C)O)ncc(OC[C@H]3CCCNC3)c21 [GSK-690693]
PC-3 [2]
  Activity: 10.52%
PC-3 [8]
  Activity: 3.96%
PC-3 [13]
  Activity: 47.26%
PC-3 [14]
  Activity: 5.77%
PC-3 [22]
  Activity: 48.64%
PC-3 [24]
  Activity: 45.34%
PC-3 [27]
  Activity: 48.79%
PC-3 [28]
  Activity: 46.38%
PC-3 [30]
  Activity: 48.89%
PC-3 [37]
  Activity: 4.98%

## CNc1nc(N2CCN(C(=O)C(CNC(C)C)c3ccc(Br)cc3)CC2)c2cc[nH]c2n1 (stereo not given)
PC-3 [1]
  IC50: 8.7 µM

## CC(C)NCC(C(=O)N1CCN(c2ncnc3[nH]nc(Cl)c23)CC1)c1ccc(Br)cc1 (stereo not given)
PC-3 [2]
  Activity: 15.13%
PC-3 [3]
  Activity: >20%
PC-3 [5]
  inhibition: Active
PC-3 [8]
  Activity: 6.37%
PC-3 [11]
  Activity: Active; Negative Feedback Regulation Within Akt Signaling Pathway Observed
PC-3 [13]
  Activity: 47.17%
PC-3 [14]
  Activity: 14.35%
PC-3 [22]
  Activity: 53.89%
PC-3 [1]
  IC50: 2.9 µM
PC-3 [24]
  Activity: 32.69%
PC-3 [27]
  Activity: 46.45%
PC-3 [28]
  Activity: 36.86%
PC-3 [30]
  Activity: 52.46%
PC-3 [37]
  Activity: 9.25%

## CC(C)NCC(C(=O)N1CCN(c2ncnc3ccccc23)CC1)c1ccc(Cl)cc1Cl (stereo not given)
PC-3 [1]
  IC50: > 40 µM

## CNc1nc(N2CCN(C(=O)C(CNC(C)C)c3ccc(Br)cc3)CC2)c2sccc2n1 (stereo not given)
PC-3 [1]
  IC50: 4.9 µM

## CC(C)NCC(C(=O)N1CCN(c2ncnc3[nH]nc(Cl)c23)CC1)c1ccc(Cl)cc1Cl (stereo not given)
PC-3 [1]
  IC50: 3.5 µM

## CC(C)NCC(C(=O)N1CCN(c2ncnc3ccccc23)CC1)c1ccc(Br)cc1 (stereo not given)
PC-3 [1]
  IC50: 30.2 µM

## Cc1c[nH]c2ncnc(N3CCN(C(=O)C(CNC(C)C)c4ccc(Cl)cc4Cl)CC3)c12 (stereo not given)
PC-3 [1]
  IC50: 22 µM

## CNc1nccc(N2CCN(C(=O)C(CNC(C)C)c3ccc(Cl)cc3Cl)CC2)n1 (stereo not given)
PC-3 [1]
  IC50: 27.8 µM

## CC(C)NCC(C(=O)N1CCN(c2ncnc3[nH]cnc23)CC1)c1ccc(Br)cc1 (stereo not given)
PC-3 [1]
  IC50: 20.1 µM

## CC(C)NCC(C(=O)N1CCN(c2ncnc3[nH]ncc23)CC1)c1ccc(Br)cc1 (stereo not given)
PC-3 [1]
  IC50: 12.4 µM

## CNc1nc(N2CCN(C(=O)C(CNC(C)C)c3ccc(Cl)cc3Cl)CC2)c2sccc2n1 (stereo not given)
PC-3 [1]
  IC50: 5.9 µM

## CC(C)NCC(C(=O)N1CCN(c2ncnc3[nH]ncc23)CC1)c1ccc(Cl)cc1Cl (stereo not given)
PC-3 [1]
  IC50: > 40 µM

## CNc1nc(N2CCN(C(=O)C(CNC(C)C)c3ccc(Cl)cc3Cl)CC2)c2cc[nH]c2n1 (stereo not given)
PC-3 [1]
  IC50: 18.1 µM

## CC(C)NCC(C(=O)N1CCN(c2ncnc3[nH]cnc23)CC1)c1ccc(Cl)cc1Cl (stereo not given)
PC-3 [1]
  IC50: 23.8 µM

## Cc1c[nH]c2ncnc(N3CCN(C(=O)C(CNC(C)C)c4ccc(Br)cc4)CC3)c12 (stereo not given)
PC-3 [1]
  IC50: 15.8 µM
